The structures appear in SMILES notation. Like-named read-outs stand apart in the source and are kept apart here.

Data set [1] relates to IL-6 secretion in the human mast cell line HMC 1.1. In words: IL-6 production inhibition assay (IL-33 stimulated HMC 1.1 cells, IL-6 ELISA). Format: cell-based. Particulars: for inhibition at 1 µM: 1 μM compound, read-out: Inhibition of hIL-6 production (%) 1 μM; for inhibition at 1 µM / inhibition at 10 µM / inhibition at 0.1 µM: 24 hours; for inhibition at 10 µM: 10 μM compound, read-out: Inhibition of hIL-6 production (%) 10 μM; for EC50: read-out: Inhibition of hIL-6 production EC50; for inhibition at 0.1 µM: 0.1 μM compound, read-out: Inhibition of hIL-6 production (%) 0.1 μM. On the procedure:
Human mast cell line HMC 1.1 cells were cultured in medium (Iscove's Modified Dulbecco's Medium, IMDM, HyClone) supplemented with […] fetal bovine serum (FBS, HyClone) and 1% antibiotics and maintained at 37° C. with 5% CO2.
HMC 1.1 cells, which are non-adherent cells, were cultured in 0.5 mL of culture medium containing 200 nM of IL-33 wild type human recombinant protein after centrifugation of cells in culture flasks filled to […] capacity and incubated for 24 hours with […], 10 μM, 25 μM, 30 μM or 50 μM of Example compound.
Medium was harvested by centrifugation (2,000×g, 5 min) and stored at −80° C. until ELISA assay.
Experiments were performed according to the protocol using the Human IL-6 ELISA kit (abCam).
The average of the three values obtained in triplicate was calculated and the amount of IL-6 secretion was measured using a standard curve. The measured IL-6 secretion was converted to 100% based on the vehicle treatment sample value to obtain the vehicle %.
In general terms: ELISA stands for enzyme-linked immunosorbent assay.

Data set [2] is described as follows: Cellular viability, WST-8 assay, without or with human liver microsomes. Format: cell-based. The method, then: (§1) Human liver cancer cell line HepG2 cells were cultured in a medium (high glucose Dulbecco's Modified Eagle Medium, DMEM, HyClone) supplemented with 10% fetal bovine serum (FBS, HyClone) and 1% antibiotic in a thermostat maintained at 37° C. with 5% CO2.
(§2) HepG2 cells, which are adherent cells, were […] or presence of human liver microsomes (Gibco) and NADPH regenerating system.
(§3) Cell cultures were exchanged using […] of medium (high glucose Dulbecco's Modified Eagle Medium, DMEM, HyClone) and incubated for 24 hours.
(§4) After adding 10 μL of WST-8 (abCam), the absorbance was obtained at 460 nm after 5 seconds of orbital shaking with a microplate reader (Tecan, Spark©) 2 hours later.
(§5) The mean of the three values obtained in triplicate was calculated and expressed as % cellular viability compared to vehicle treatment.
(In general: Tetrazolium dyes change colour on reduction, which living cells bring about.)

Data set [3] has as its system Human liver cancer cell line HepG2 cells. Described as above. In kind it is cell-based. The settings on record: for Cellular viability (%) (+) microsome: HepG2, with human liver microsomes; for Cellular viability (%) (−) microsome: HepG2, without human liver microsomes. On the procedure: as §1, §2, §3, §4, §5
On the technique in general: Microsomes from liver hold many membrane-bound enzymes, among them those of drug oxidation.

In data set [4] the target is T1, IL33 and ST2 binding (Homo sapiens, UniProt O95760).
T1 sequence (O95760 112-270 limits assumed): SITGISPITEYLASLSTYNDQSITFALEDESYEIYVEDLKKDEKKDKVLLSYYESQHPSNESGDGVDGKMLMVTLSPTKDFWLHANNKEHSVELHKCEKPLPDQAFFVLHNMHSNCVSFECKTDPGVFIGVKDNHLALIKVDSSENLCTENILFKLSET
Method: (§6) 100 nM of Flag tagged IL-33 human recombinant protein was prepared in 1× coating buffer (Biolegend) and placed in a 96 well microplate (Coming) using a Multichannel pipette (Gilson) and coated for at least 12 hours at 4° C.
(§7) After washing three times with PBST (1×PBS (Welgene), 1% Tween 20 (sigma)), it was reacted with 1% BSA (Bovogen) blocking buffer for 1 hour at room temperature.
(§8) Samples containing 200 nM of His-tagged ST2 human recombinant protein and 60 μM or 200 μM Example synthetic compounds were prepared, added in equal volumes, and reacted for at least 2 hours at room temperature.
(§9) After washing three times with PBST (1×PBS (Welgene), 1% Tween 20 (sigma)), anti-His HRP (BioLegend) antibody was diluted 5000:1 and reacted for at least 1 hour at room temperature.
(§10) After washing three times with PBST (1×PBS (Welgene), 1% Tween 20 (sigma)), TMB substrate solution (Thermo) was added and reacted for more than 5 minutes. The reaction was stopped by adding 1 N HCl (Samchun) and the absorbance value was obtained at 450 nm after orbital shaking for 5 s with a Microplate reader (Tecan, Spark®).
(§11) The results derived from the program linked to the microplate reader were analyzed using an Excel program. IL33-ST2 binding rate (binding %) was calculated by averaging the three values obtained in triplicate, subtracting the positive control value, and converting the negative control value to 100%. The inhibition % value of each compound was obtained by subtracting the IL33-ST2 binding % from 100%, and the error range of triplicate was also obtained and reflected in the inhibition graph of the compound.

In data set [5] the target is T1, IL33 and ST2 binding. In words: biochemical.
Method: as §6, §7, §8, §9, §10, §11
Where [6] appears, read: HepG2, with human liver microsomes, read-out: CC50 (μM) (+) microsome.
[7] abbreviates: HepG2 cells, HepG2, without human liver microsomes, read-out: CC50 (μM) (−) microsome.
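Throughout, for IC50: plate ELISA with coated Flag-tagged human IL-33 and His-tagged human ST2, bound ST2 detected by anti-His HRP and TMB absorbance at 450 nm, 2 h compound incubation.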

Consider `CSc1ccc(-c2nc(C(=O)NCCN(C)C)c(-c3ccccc3)o2)cc1` [Compound 271, N-(2-(Dimethylamino)ethyl)-2-(4-(methylthio)phenyl)-5-phenyloxazole-4-carboxamide], for which, in data set [1], the inhibition at 1 µM was determined as 14%, the inhibition at 10 µM is 69% and the EC50 was determined as 0.86 µM. In data set [2] (setting [6]), the CC50 at 24 h was found to be 6.12 µM. For the same molecule, in data set [2] (setting [7]), the CC50 at 24 h was 3.74 µM. For the same molecule, in data set [3] (at 100 μM), the “Cellular viability (%) (+) microsome” value was 52 at % and the “Cellular viability (%) (−) microsome” value amounted to 45 at %. At IL33 and ST2 binding [4] (30 µM), the inhibition stood at 31%. Moreover, the inhibition at IL33 and ST2 binding [4] (100 µM) was 105%.

In the case of `CCOC(=O)c1nc(-c2ccc(C(F)(F)F)cc2)oc1-c1ccccc1OC` [Compound 44, Ethyl 5-(2-methoxyphenyl)-2-(4-(trifluoromethyl)phenyl)oxazole-4-carboxylate], in data set [1], the inhibition at 1 µM turned out to be 38%, the inhibition at 10 µM amounted to 77% and the concentration for a half-maximal effect (EC50) was 2.56 µM. Further, in data set [3] (at 100 μM), the “Cellular viability (%) (+) microsome” value was 99 at % and the “Cellular viability (%) (−) microsome” value is on record as 68 at %. Further, the inhibition at IL33 and ST2 binding [4] (30 µM) worked out at 100%. Moreover, the IC50 on IL33 and ST2 binding [5] was 1.26 µM.

As for `CCOC(=O)c1nc(-c2ccc(C(F)(F)F)cc2)oc1-c1ccccc1OC(F)(F)F` [Compound 52, Ethyl 5-(2-(trifluoromethoxy)phenyl)-2-(4-(trifluoromethyl)phenyl)oxazole-4-carboxylate], in data set [1], the inhibition at 1 µM amounted to 22%, the inhibition at 10 µM was found to be 48% and the EC50 is 2.26 µM. In data set [3] (at 100 μM), the “Cellular viability (%) (+) microsome” value was 97 at % and the “Cellular viability (%) (−) microsome” value is listed as 117 at %. The inhibition on IL33 and ST2 binding [4] (30 µM) amounted to 115%. Further, the inhibition at IL33 and ST2 binding [4] (100 µM) amounted to 115%. The same molecule registered an IC50 on IL33 and ST2 binding [5] of 7.99 µM.

`CCOC(=O)c1nc(-c2ccc(C(F)(F)F)cc2)oc1-c1cccc(C#N)c1` [Compound 55, Ethyl 5-(3-cyanophenyl)-2-(4-(trifluoromethyl)phenyl)oxazole-4-carboxylate]: in data set [1], the inhibition at 1 µM is 45%, the inhibition at 10 µM turned out to be 52% and the EC50 amounted to 0.09 µM. In data set [3] (at 100 μM), the “Cellular viability (%) (+) microsome” value came to 91 at % and the “Cellular viability (%) (−) microsome” value was 90 at %. At IL33 and ST2 binding [4] (30 µM), the inhibition is 115%. For the same molecule, at IL33 and ST2 binding [4] (100 µM), the inhibition was determined as 116%.

Consider `CN1CCN(CCNC(=O)c2nc(-c3cc(F)cc(F)c3)oc2-c2ccccc2[N+](=O)[O-])CC1` [Compound 238, 2-(3,5-Difluorophenyl)-N-(2-(4-methylpiperazin-1-yl)ethyl)-5-(2-nitrophenyl)oxazole-4-carboxamide], for which, in data set [1], the inhibition at 1 µM is 14%, the inhibition at 10 µM came out at 45% and the EC50 stood at 6.3 µM. In addition, the 50% cytotoxic concentration (CC50) at 24 h in data set [2] (setting [6]) turned out to be 21.3 µM. Moreover, the CC50 at 24 h in data set [2] (setting [7]) came out at 19 µM. Besides, in data set [3] (at 100 μM), the “Cellular viability (%) (+) microsome” value is on record as 53 at % and the “Cellular viability (%) (−) microsome” value came out at 49 at %. For the same molecule, on IL33 and ST2 binding [4] (30 µM), the inhibition was found to be 40%. On IL33 and ST2 binding [4] (100 µM), the inhibition amounted to 103%.

`CCNC(=O)c1nc(-c2ccc(C(F)(F)F)cc2)oc1-c1cccnc1` [Compound 307, N-Ethyl-5-(pyridin-3-yl)-2-(4-(trifluoromethyl)phenyl)oxazole-4-carboxamide]: in data set [1], the inhibition at 0.1 µM was determined as 61%, the inhibition at 1 µM was determined as 69%, the inhibition at 10 µM was 79% and the EC50 was 0.11 µM. For the same molecule, in data set [3] (at 160 μM), the “Cellular viability (%) (+) microsome” value is on record as 108 at % and the “Cellular viability (%) (−) microsome” value is recorded as 105 at %. Moreover, the inhibition at IL33 and ST2 binding [4] (30 µM) is 106%.

Take `CCOC(=O)c1nc(-c2ccc(C(F)(F)F)cc2)oc1-c1ccc([N+](=O)[O-])cc1` [Compound 34, Ethyl 5-(4-nitrophenyl)-2-(4-(trifluoromethyl)phenyl)oxazole-4-carboxylate]: in data set [3] (at 100 μM), the “Cellular viability (%) (+) microsome” value worked out at 85 at % and the “Cellular viability (%) (−) microsome” value is listed as 87 at %. The inhibition at IL33 and ST2 binding [4] (30 µM) was 108%. The inhibition at IL33 and ST2 binding [4] (100 µM) came to 108%. In addition, the IC50 at IL33 and ST2 binding [5] came to 0.91 µM.

In the case of `CCNC(=O)c1nc(-c2ccc(C(F)(F)F)cc2)oc1-c1cc(O)c(O)c(O)c1` [Compound 323, N-Ethyl-2-(4-(trifluoromethyl)phenyl)-5-(3,4,5-trihydroxyphenyl)oxazole-4-carboxamide], in data set [1], the inhibition at 1 µM is 45% and the inhibition at 10 µM was 84%. In data set [3] (at 160 μM), the “Cellular viability (%) (+) microsome” value stood at 77 at % and the “Cellular viability (%) (−) microsome” value turned out to be 63 at %.

On to `CN(C)CCNC(=O)c1nc(-c2cccc(Cl)c2)oc1-c1ccccc1` [Compound 240, 2-(3-Chlorophenyl)-N-(2-(dimethylamino)ethyl)-5-phenyloxazole-4-carboxamide], for which, in data set [1], the inhibition at 1 µM stood at 6%, the inhibition at 10 µM is 44% and the EC50 worked out at 3.7 µM. Moreover, in data set [2] (setting [6]), the CC50 at 24 h stood at 6.36 µM. Further, the cytotoxic concentration (CC50) at 24 h in data set [2] (setting [7]) is 5.46 µM. For the same molecule, in data set [3] (at 100 μM), the “Cellular viability (%) (+) microsome” value is given as 50 at % and the “Cellular viability (%) (−) microsome” value came out at 45 at %. In addition, the inhibition on IL33 and ST2 binding [4] (30 µM) was found to be 7%. For the same molecule, the inhibition at IL33 and ST2 binding [4] (100 µM) is 70%.

On to `CCNC(=O)c1nc(-c2ccc(SC)cc2)oc1-c1ccccc1` [Compound 316, N-Ethyl-2-(4-(methylthio)phenyl)-5-phenyloxazole-4-carboxamide], for which, in data set [1], the inhibition at 0.1 µM is 25%, the inhibition at 1 µM amounted to 69%, the inhibition at 10 µM was 77% and the EC50 is 0.35 µM. Also, in data set [3] (at 160 μM), the “Cellular viability (%) (+) microsome” value was 100 at % and the “Cellular viability (%) (−) microsome” value stood at 84 at %. At IL33 and ST2 binding [4] (30 µM), the inhibition was determined as 47%.

Take `CCNC(=O)c1nc(-c2ccc(C(F)(F)F)cc2)oc1-c1ccccc1` [Compound 294, N-Ethyl-5-phenyl-2-(4-(trifluoromethyl)phenyl)oxazole-4-carboxamide]: in data set [1], the inhibition at 0.1 µM amounted to 50%, the inhibition at 1 µM was 88%, the inhibition at 10 µM was determined as 94% and the concentration for a half-maximal effect (EC50) was 0.13 µM. In data set [3] (at 160 μM), the “Cellular viability (%) (+) microsome” value was found to be 90 at % and the “Cellular viability (%) (−) microsome” value is 95 at %. Moreover, at IL33 and ST2 binding [4] (30 µM), the inhibition worked out at 95%.

On to `CCNC(=O)c1nc(-c2ccc(C(F)(F)F)cc2)oc1-c1cc(O)cc(O)c1` [Compound 322, 5-(3,5-Dihydroxyphenyl)-N-ethyl-2-(4-(trifluoromethyl)phenyl)oxazole-4-carboxamide], for which, in data set [1], the inhibition at 1 µM amounted to 86% and the inhibition at 10 µM was determined as 73%. In data set [3] (at 160 μM), the “Cellular viability (%) (+) microsome” value came to 90 at % and the “Cellular viability (%) (−) microsome” value was determined as 63 at %.

On to `CCOC(=O)c1nc(-c2ccc(SC)cc2)oc1-c1ccccc1` [Compound 90, Ethyl 2-(4-(methylthio)phenyl)-5-phenyloxazole-4-carboxylate], for which, in data set [1], the inhibition at 0.1 µM amounted to 33%, the inhibition at 1 µM was 54%, the inhibition at 10 µM was found to be 55% and the EC50 is 0.49 µM. Moreover, in data set [2] (setting [6]), the 50% cytotoxic concentration (CC50) at 24 h came to 40.8 µM. For the same molecule, in data set [2] (setting [7]), the CC50 at 24 h came out at 14 µM. Besides, in data set [3] (at 135 μM), the “Cellular viability (%) (+) microsome” value came out at 74 at % and the “Cellular viability (%) (−) microsome” value was found to be 53 at %.

As a reminder, the inhibition is the relative decrease from the control value, in per cent. One may read the EC50 as the concentration giving half of the maximal effect. As a reminder, the CC50 is the concentration giving 50% cytotoxicity. The term IC50 denotes the concentration at which inhibition is half-maximal. Read a high IC50 as lower potency.
